{
  "source": "patent US20240158392A1",
  "about": "(Janssen Biotech, Inc., priority 2021, published 2024)",
  "data": [
    {"molecular_target": "SIK2 (Homo sapiens, UniProt Q9H0K1)", "sequence (Q9H0K1 whole entry, species assumed)": "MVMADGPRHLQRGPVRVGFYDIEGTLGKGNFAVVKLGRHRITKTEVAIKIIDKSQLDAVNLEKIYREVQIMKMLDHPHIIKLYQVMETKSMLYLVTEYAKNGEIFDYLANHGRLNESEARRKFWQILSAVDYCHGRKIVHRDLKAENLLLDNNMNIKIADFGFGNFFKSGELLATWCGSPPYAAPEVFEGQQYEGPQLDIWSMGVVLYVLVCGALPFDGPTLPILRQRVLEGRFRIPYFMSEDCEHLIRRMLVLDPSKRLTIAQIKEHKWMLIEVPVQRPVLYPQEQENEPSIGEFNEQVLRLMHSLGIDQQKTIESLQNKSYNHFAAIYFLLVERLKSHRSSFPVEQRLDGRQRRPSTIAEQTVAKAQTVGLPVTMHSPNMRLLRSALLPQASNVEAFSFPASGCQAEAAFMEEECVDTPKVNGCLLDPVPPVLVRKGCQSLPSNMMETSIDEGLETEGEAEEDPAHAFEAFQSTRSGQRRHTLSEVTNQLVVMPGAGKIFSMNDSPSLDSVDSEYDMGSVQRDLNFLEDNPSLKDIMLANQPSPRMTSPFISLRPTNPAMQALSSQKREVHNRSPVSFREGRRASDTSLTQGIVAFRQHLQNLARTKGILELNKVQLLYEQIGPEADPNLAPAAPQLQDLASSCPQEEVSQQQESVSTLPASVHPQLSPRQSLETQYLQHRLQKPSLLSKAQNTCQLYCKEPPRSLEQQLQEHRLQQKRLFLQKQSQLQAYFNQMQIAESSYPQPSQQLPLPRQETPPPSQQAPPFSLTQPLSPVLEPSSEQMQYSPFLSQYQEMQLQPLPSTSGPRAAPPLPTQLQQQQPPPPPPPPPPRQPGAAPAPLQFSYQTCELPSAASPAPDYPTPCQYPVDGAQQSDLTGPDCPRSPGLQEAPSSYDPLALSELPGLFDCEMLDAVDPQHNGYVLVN", "assay": "SIK2 Enzymatic Assay High Version 2 (High ATP)", "assay_type": "biochemical", "settings": "not given", "protocol": "(§1) All steps were performed at room temperature. Compounds were pre-plated onto an assay plate using an Echo acoustic dispenser (Labcyte, E550 or E555) at 80 nL per well. Enzyme prepared in assay buffer at 6 nM (2× final concentration) was added at 4 μL per well using the Multidrop Combi (Thermo Fisher—used for all additions in this assay) to the assay plate, spun for 1 min at 1000 rpm (Allegra 6KR Beckman Coulter centrifuge), and incubated with compound for 30 minutes. Assay buffer containing 6 mM ATP and 400 μM HDAC5tide (2× of final concentration for each substrate) was added at 4 μL per well to the assay plate and then spun as above and incubated for 2 hours. […] ADP-Glo Max Reagent (prepared and aliquoted as per manufacturer instructions) was then added at 8 μL per well, spun and incubated for 2 hours. ADP-Glo Max Detection (prepared and aliquoted as per manufacturer instructions) was added at 8 μL per well to the assay plate, which was spun and incubated for 1 hour. The plate is then read on the Pherastar (BMG Labtech) using a luminescence read. Gain is set between 2200-2500.", "units": {"IC50": "µM"}, "values": [
      {"smiles": "Cc1cc(-c2ccn3nc(Nc4cc(C)nc(C)n4)cc3c2)c(OC[C@@H]2CC[C@@H](O)CO2)cn1", "note": "(single isomer, unassigned) [Example 346, (3*R,6*S)-6-[[4-[2-[(2,6-dimethylpyrimidin-4-yl)amino]pyrazolo[1,5-a]pyridin-5-yl]-6-methyl-3-pyridyl]oxymethyl]tetrahydropyran-3-ol]", "IC50": 0.0167},
      {"smiles": "Cc1cc(-c2ccn3nc(Nc4cc(C)nc(C)n4)cc3c2)c(OC[C@H]2CC[C@H](O)CO2)cn1", "note": "(single isomer, unassigned) [Example 347, (3*S,6*S)-6-[[4-[2-[(2,6-dimethylpyrimidin-4-yl)amino]pyrazolo[1,5-a]pyridin-5-yl]-6-methyl-3-pyridyl]oxymethyl]tetrahydropyran-3-ol]", "IC50": 0.0352},
      {"smiles": "Cc1cc(-c2cn3cc(Nc4cc(C)nc(C)n4)nc3cn2)c(O[C@H]2C[C@H]3COC[C@@H](C2)N3)cn1", "note": "(single isomer, unassigned) [Example 348]", "IC50": "< 0.000847"}
    ]},
    {"molecular_target": "SIK2 (Homo sapiens, UniProt Q9H0K1)", "assay": "SIK2 Enzymatic Assay High Version 2 (High ATP)", "assay_type": "biochemical", "settings": "enzyme 6 nM, 6 mM ATP and 400 μM HDAC5tide (each 2× final concentration); 30 minutes pre-incubation, 2 hours; ADP-Glo Max luminescence; read-out: SIK2 high ATP IC50 (μM) (Test Example 2)", "protocol": "as §1", "units": {"IC50": "µM"}, "values": [
      {"smiles": "Cc1cc(-c2ccn3nc(NC(=O)C4CC4)cc3c2)c(OC[C@@]2(C#N)CCN(C)C2)cn1", "note": "(single isomer, unassigned) [Example 212, (*S)—N-[5-[5-[(3-cyano-1-methyl-pyrrolidin-3-yl)methoxy]-2-methyl-4-pyridyl]pyrazolo[1,5-a]pyridin-2-yl]cyclopropanecarboxamide]", "IC50": 0.0472},
      {"smiles": "Cc1cc(-c2ccn3nc(NC(=O)C4CC4)cc3c2)c(OC[C@]2(C#N)CCN(C)C2)cn1", "note": "(single isomer, unassigned) [Example 213, (*R)—N-[5-[5-[(3-cyano-1-methyl-pyrrolidin-3-yl)methoxy]-2-methyl-4-pyridyl]pyrazolo[1,5-a]pyridin-2-yl]cyclopropanecarboxamide]", "IC50": 0.0505},
      {"smiles": "CO[C@]1(COc2cnc(C)cc2-c2ccn3nc(NC(=O)C4CC4)cc3c2)CCNC1", "note": "(single isomer, unassigned) [Example 214, (*R)—N-[5-[5-[(3-methoxypyrrolidin-3-yl)methoxy]-2-methyl-4-pyridyl]pyrazolo[1,5-a]pyridin-2-yl]cyclopropanecarboxamide]", "IC50": 0.0324},
      {"smiles": "CO[C@@]1(COc2cnc(C)cc2-c2ccn3nc(NC(=O)C4CC4)cc3c2)CCNC1", "note": "(single isomer, unassigned) [Example 215, (*S)—N-[5-[5-[(3-methoxypyrrolidin-3-yl)methoxy]-2-methyl-4-pyridyl]pyrazolo[1,5-a]pyridin-2-yl]cyclopropanecarboxamide]", "IC50": 0.0037},
      {"smiles": "Cc1cc(-c2ccn3nc(Nc4cc(C)nc(C)n4)cc3c2)c(OC[C@@]2(O)CCCOC2)cn1", "note": "(single isomer, unassigned) [Example 216, (*R)-3-[[4-[2-[(2,6-dimethylpyrimidin-4-yl)amino]pyrazolo[1,5-a]pyridin-5-yl]-6-methyl-3-pyridyl]oxymethyl]tetrahydropyran-3-ol]", "IC50": 0.0311},
      {"smiles": "Cc1cc(-c2ccn3nc(Nc4cc(C)nc(C)n4)cc3c2)c(OC[C@@H]2CC3(CCCC3)CO2)cn1", "note": "(single isomer, unassigned) [Example 219, (*S)—N-(2,6-dimethylpyrimidin-4-yl)-5-[2-methyl-5-(8-oxaspiro[4.4]nonan-7-ylmethoxy)-4-pyridyl]pyrazolo[1,5-a]pyridin-2-amine]", "IC50": 0.0497},
      {"smiles": "Cc1cc(-c2ccn3nc(Nc4cc(C)nc(C)n4)cc3c2)c(OC[C@@H]2CC3(CCC3)CO2)cn1", "note": "(single isomer, unassigned) [Example 220, (*S)-5-(5-((6-oxaspiro[3.4]octan-7-yl)methoxy)-2-methylpyridin-4-yl)-N-(2,6-dimethylpyrimidin-4-yl)pyrazolo[1,5-a]pyridin-2-amine]", "IC50": 0.0142},
      {"smiles": "Cc1cc(-c2ccn3nc(NC(=O)C4CC4)cc3c2)c(OCC2(O)CCNC2)cn1", "note": "(single isomer, unassigned) [Example 222, (*S)—N-[5-[5-[(3-hydroxypyrrolidin-3-yl)methoxy]-2-methyl-4-pyridyl]pyrazolo[1,5-a]pyridin-2-yl]cyclopropanecarboxamide]", "IC50": 0.0119},
      {"smiles": "Cc1cc(-c2ccn3nc(NC(=O)C4CC4)cc3c2)c(OCC2(O)CCNC2)cn1", "note": "(single isomer, unassigned) [Example 223, (*R)—N-[5-[5-[(3-hydroxypyrrolidin-3-yl)methoxy]-2-methyl-4-pyridyl]pyrazolo[1,5-a]pyridin-2-yl]cyclopropanecarboxamide]", "IC50": 0.0278},
      {"smiles": "Cc1cc(-c2ccn3nc(Nc4cc(C)nc(C)n4)cc3c2)c(OC[C@@H]2CCC3(CCCC3)O2)cn1", "note": "(single isomer, unassigned) [Example 230, (*S)—N-(2,6-dimethylpyrimidin-4-yl)-5-[2-methyl-5-(9-oxaspiro[4.4]nonan-8-ylmethoxy)-4-pyridyl]pyrazolo[1,5-a]pyridin-2-amine]", "IC50": 0.0377},
      {"smiles": "Cc1cc(-c2ccn3nc(Nc4cc(C)nc(C)n4)cc3c2)c(OC[C@H]2CCC3(CCCC3)O2)cn1", "note": "(single isomer, unassigned) [Example 231, (*R)—N-(2,6-dimethylpyrimidin-4-yl)-5-[2-methyl-5-(9-oxaspiro[4.4]nonan-8-ylmethoxy)-4-pyridyl]pyrazolo[1,5-a]pyridin-2-amine]", "IC50": 0.00839},
      {"smiles": "Cc1cc(-c2ccn3nc(Nc4cc(C)nc(C)n4)cc3c2)c(OC[C@]2(C)CCCO2)cn1", "note": "(single isomer, unassigned) [Example 232, (*S)—N-(2,6-dimethylpyrimidin-4-yl)-5-[2-methyl-5-[(2-methyltetrahydrofuran-2-yl)methoxy]-4-pyridyl]pyrazolo[1,5-a]pyridin-2-amine]", "IC50": 0.0245},
      {"smiles": "Cc1cc(-c2ccn3nc(Nc4cc(C)nc(C)n4)cc3c2)c(OC[C@H]2CC3(CCCC3)CO2)cn1", "note": "(single isomer, unassigned) [Example 258, (*R)—N-(2,6-dimethylpyrimidin-4-yl)-5-[2-methyl-5-(8-oxaspiro[4.4]nonan-7-ylmethoxy)-4-pyridyl]pyrazolo[1,5-a]pyridin-2-amine]", "IC50": 0.153},
      {"smiles": "Cc1cc(-c2ccn3nc(Nc4cc(C)nc(C)n4)cc3c2)c(OCC(C)(O)C(F)(F)F)cn1", "note": "(single isomer, unassigned) [Example 263, (*S)-3-[[4-[2-[(2,6-dimethylpyrimidin-4-yl)amino]pyrazolo[1,5-a]pyridin-5-yl]-6-methyl-3-pyridyl]oxy]-1,1,1-trifluoro-2-methyl-propan-2-ol]", "IC50": 0.00844},
      {"smiles": "Cc1cc(-c2ccn3nc(Nc4cc(C)nc(C)n4)cc3c2)c(OC[C@@](C)(O)C(F)(F)F)cn1", "note": "(single isomer, unassigned) [Example 264, (*R)-3-[[4-[2-[(2,6-dimethylpyrimidin-4-yl)amino]pyrazolo[1,5-a]pyridin-5-yl]-6-methyl-3-pyridyl]oxy]-1,1,1-trifluoro-2-methyl-propan-2-ol]", "IC50": 0.0348},
      {"smiles": "Cc1cc(-c2ccn3nc(Nc4cc(C)nc(C)n4)cc3c2)c(OC[C@@](C)(N)C(F)(F)F)cn1", "note": "(single isomer, unassigned) [Example 270, (*R)-5-[5-(2-Amino-3,3,3-trifluoro-2-methyl-propoxy)-2-methyl-4-pyridyl]-N-(2,6-dimethylpyrimidin-4-yl)pyrazolo[1,5-a]pyridin-2-amine]", "IC50": 0.0193},
      {"smiles": "Cc1cc(-c2ccn3nc(Nc4cc(C)nc(C)n4)cc3c2)c(OC[C@](C)(N)C(F)(F)F)cn1", "note": "(single isomer, unassigned) [Example 304, (*S)-5-[5-(2-amino-3,3,3-trifluoro-2-methyl-propoxy)-2-methyl-4-pyridyl]-N-(2,6-dimethylpyrimidin-4-yl)pyrazolo[1,5-a]pyridin-2-amine]", "IC50": 0.0028},
      {"smiles": "Cc1cc(-c2ccn3nc(Nc4cc(C)c(=O)n(C)n4)cc3c2)c(OC2CCC(S(C)(=O)=O)CC2)cn1", "note": "(single isomer, unassigned) [Example 306, 2,4-dimethyl-6-((5-(2-methyl-5-(((1r,4r)-4-(methylsulfonyl)cyclohexyl)oxy)pyridin-4-yl)pyrazolo[1,5-a]pyridin-2-yl)amino)pyridazin-3(2H)-one]", "IC50": 0.0358},
      {"smiles": "Cc1cc(-c2ccn3nc(Nc4cc(C)c(=O)n(C)n4)cc3c2)c(OC[C@@](C)(N)C(F)(F)F)cn1", "note": "(single isomer, unassigned) [Example 311, (*R)-6-[[5-[5-(2-amino-3,3,3-trifluoro-2-methyl-propoxy)-2-methyl-4-pyridyl]pyrazolo[1,5-a]pyridin-2-yl]amino]-2,4-dimethyl-pyridazin-3-one]", "IC50": 0.0057},
      {"smiles": "Cc1cc(-c2ccn3nc(Nc4cc(C)c(=O)n(C)n4)cc3c2)c(OC[C@](C)(N)C(F)(F)F)cn1", "note": "(single isomer, unassigned) [Example 312, (*S)-6-[[5-[5-(2-amino-3,3,3-trifluoro-2-methyl-propoxy)-2-methyl-4-pyridyl]pyrazolo[1,5-a]pyridin-2-yl]amino]-2,4-dimethyl-pyridazin-3-one]", "IC50": "< 0.000847"},
      {"smiles": "Cc1cc(-c2ccn3nc(Nc4cc(C)nc(C)n4)cc3c2)c(OC[C@@H]2COC[C@H](O)C2)cn1", "note": "(single isomer, unassigned) [Example 351, (3*R, 5*S)-5-[[4-[2-[(2,6-dimethylpyrimidin-4-yl)amino]pyrazolo[1,5-a]pyridin-5-yl]-6-methyl-3-pyridyl]oxymethyl]tetrahydropyran-3-ol]", "IC50": 0.00278},
      {"smiles": "Cc1cc(-c2ccn3nc(Nc4cc(C)nc(C)n4)cc3c2)c(O[C@@H]2CCS(=O)(=O)N(C)C2)cn1", "note": "(single isomer, unassigned) [Example 354, (*R)—N-(2,6-dimethylpyrimidin-4-yl)-5-[2-methyl-5-(2-methyl-1,1-dioxo-thiazinan-4-yl)oxy-4-pyridyl]pyrazolo[1,5-a]pyridin-2-amine]", "IC50": 0.0322}
    ]}
  ]
}
